# Assay results published in PMC12638379, “An innovative approach to development of new pyrazolylquinolin-2-one hybrids as dual EGFR and BRAF^V600E inhibitors” (Molecular Diversity, 2025).
# Like-named read-outs stand apart in the source and are kept apart here.
# Assays:
# NCI 60 cancer cell lines = test: NCI anticancer screening over a panel of 60 cancer cells, single concentration 10 µM; type: cell-based, human; conditions: Homo sapiens, read-out: % Growth Inhibition (GI %)
# In short: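 Primary single-dose screen at 10 µM over the NCI panel of 60 human tumour cell lines (leukemia, CNS, lung, colon, kidney, ovary, breast, prostate). The standard NCI Developmental Therapeutics Program protocol was used.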
# [1] = test system: breast cancer (T47D) cell line; test: MTT antiproliferative assay, T-47D
# Experimental: The median inhibitory concentration (IC50) and GI50 (average IC50) against the three cancer cell lines were calculated. See Appendix B.
# Cells were cultured using DMEM (Invitrogen/Life Technologies) supplemented with 10% FBS (Hyclone,), 10 ug/ml of insulin (Sigma), and 1% penicillin-streptomycin. Plate cells (cells density 1.2 – 1.8 × 10,000 cells/well) in a volume of 100µl complete growth medium + 100 ul of the tested compound per well in a 96-well plate for 24 hours before the MTT assay. In atypical experiment, one hundred micro liters of serial 10-fold diluted sterile tested compounds were added to final concentrations of […] using culture media as negative control. After 24 h of culture incubation and supernatants discarded. HOP-92 lung, MOLT-4 leukemia, and T-47D breast cell lines were trypsinized and washed with Ca2/Mg2 free PBS (pH 7.2). we removed cultures from incubator into laminar flow hood or other sterile work area. […] Each test should include a blank containing complete medium without cells. […] Add reconstituted MTT in an amount equal to 10% of the culture medium volume. Return cultures to incubator for 2-4 hours depending on cell type and maximum cell density. […] Spectrophotometrically absorbance was measured at a wavelength of 570 nm. Measure the background absorbance of multiwell plates at 690 nm and subtract from the […] measurement. Results from all experiments were recorded and the percentage of viable cells was calculated.
# [2] = MTT cytotoxicity on normal cell line WI-38; conditions: human, WI-38 normal cells, % viability
# normal cell line WI-38 = test: MTT cytotoxicity on normal cell line WI-38
# [3] = test system: lung cancer (HOP-92) cell line; test: MTT antiproliferative assay, HOP-92; type: cell-based, human
# Experimental: […]. […] See Appendix B.
# After 24 h of culture incubation and supernatants discarded.
# BRAF^V600E = BRAF^V600E (Homo sapiens, UniProt P15056, V600E); test: BRAF^V600E inhibitory assay (B-Raf (V600E) Kinase Assay); type: biochemical; conditions: read-out: BRAF^V600E inhibition IC50 ± SEM
# BRAF^V600E, sequence (P15056 whole entry V600E): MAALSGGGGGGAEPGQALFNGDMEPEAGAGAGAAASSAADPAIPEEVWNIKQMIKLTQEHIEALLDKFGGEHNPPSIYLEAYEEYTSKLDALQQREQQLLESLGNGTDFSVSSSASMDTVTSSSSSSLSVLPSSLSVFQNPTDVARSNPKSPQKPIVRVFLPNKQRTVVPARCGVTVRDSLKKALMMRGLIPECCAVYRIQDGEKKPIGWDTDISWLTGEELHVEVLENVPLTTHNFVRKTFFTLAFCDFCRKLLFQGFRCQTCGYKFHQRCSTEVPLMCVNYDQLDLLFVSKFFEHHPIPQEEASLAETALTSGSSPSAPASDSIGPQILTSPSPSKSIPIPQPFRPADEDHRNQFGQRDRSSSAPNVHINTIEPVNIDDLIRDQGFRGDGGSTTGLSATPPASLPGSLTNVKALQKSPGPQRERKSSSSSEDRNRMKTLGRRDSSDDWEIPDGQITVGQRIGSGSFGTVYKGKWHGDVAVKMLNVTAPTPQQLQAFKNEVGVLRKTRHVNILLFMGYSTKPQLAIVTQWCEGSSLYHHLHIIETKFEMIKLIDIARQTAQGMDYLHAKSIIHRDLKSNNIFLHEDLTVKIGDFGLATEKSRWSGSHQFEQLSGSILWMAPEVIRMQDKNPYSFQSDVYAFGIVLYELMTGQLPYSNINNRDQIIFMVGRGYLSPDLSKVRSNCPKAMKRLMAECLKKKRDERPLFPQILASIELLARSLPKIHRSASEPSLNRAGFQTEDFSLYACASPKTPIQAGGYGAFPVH
smiles,measurement,setting,value
"C/C(=N\Nc1ccc(S(N)(=O)=O)cc1)c1cnn(-c2cc(=O)[nH]c3ccc(Br)cc23)c1C [Compound 4e, (E)-4-(2-(1-(1-(6-bromo-2-oxo-1,2-dihydroquinolin-4-yl)-5-methyl-1H-pyrazol-4-yl)ethylidene)hydrazineyl)benzenesulfonamide]",inhibition at 10 µM,"NCI 60 cancer cell lines; RXF 393, Renal cancer RXF 393, 10 μM",31.4%
same,inhibition at 10 µM,"NCI 60 cancer cell lines; SF-268, CNS Cancer SF-268, 10 μM",42.7%
same,inhibition at 10 µM,"NCI 60 cancer cell lines; SF-295, CNS Cancer SF-295, 10 μM",8.09%
same,inhibition at 10 µM,"NCI 60 cancer cell lines; SF-539, CNS Cancer SF-539, 10 μM",58.4%
same,inhibition at 10 µM,"NCI 60 cancer cell lines; SK-MEL-2, Melanoma SK-MEL-2, 10 μM",80%
same,inhibition at 10 µM,"NCI 60 cancer cell lines; SK-MEL-5, Melanoma SK-MEL-5, 10 μM",45%
same,inhibition at 10 µM,"NCI 60 cancer cell lines; SK-MEL-28, Melanoma SK-MEL-28, 10 μM",65.3%
same,inhibition at 10 µM,"NCI 60 cancer cell lines; SK-OV-3, Ovarian cancer SK-OV-3, 10 μM",30.8%
same,inhibition at 10 µM,"NCI 60 cancer cell lines; SN12C, Renal cancer SN12C, 10 μM",38.8%
same,inhibition at 10 µM,"NCI 60 cancer cell lines; SNB-19, CNS Cancer SNB-19, 10 μM",54%
same,inhibition at 10 µM,"NCI 60 cancer cell lines; SNB-75, CNS Cancer SNB-75, 10 μM",78%
same,inhibition at 10 µM,"NCI 60 cancer cell lines; SW-620, Colon cancer SW-620, 10 μM",24.3%
same,inhibition at 10 µM,"NCI 60 cancer cell lines; T47D, Breast cancer T-47D, 10 μM",82.5%
same,inhibition at 10 µM,"NCI 60 cancer cell lines; TK-10, Renal cancer TK-10, 10 μM",< 5%
same,inhibition at 10 µM,"NCI 60 cancer cell lines; U-251, CNS Cancer U251, 10 μM",62.1%
same,inhibition at 10 µM,"NCI 60 cancer cell lines; UACC-62, Melanoma UACC-62, 10 μM",88.6%
same,inhibition at 10 µM,"NCI 60 cancer cell lines; UACC-257, Melanoma UACC-257, 10 μM",33.7%
same,inhibition at 10 µM,"NCI 60 cancer cell lines; UO-31, Renal cancer UO-31, 10 μM",45.2%
same,viability at 0.4 µM,"[1]; Homo sapiens, T47D, 0.4uM (log -0.41)",74%
same,viability at 6.3 µM,"[1]; Homo sapiens, T47D, 6.3uM (log 0.796)",52.1%
same,viability at 25 µM,"[1]; Homo sapiens, T47D, 25uM (log 1.398)",42.1%
same,viability at 100 µM,"[1]; Homo sapiens, T47D, 100uM (log 2), MTT absorbance 450 nm",32.1%
same,IC50,"[1]; Homo sapiens, T47D, read-out: Antiproliferative activity IC50 ± SEM, T-47D, MTT",8.02 ± 0.31 µM
same,% viability,"[1]; T47D, 1.6ug (log 0.193)",61.86%
same,% viability,"[1]; T47D, 25uM (log 1.398), listed as Ws5, 25 µM",42.072%
same,IC50,"[1]; read-out: Antiproliferative activity IC50 ± SEM, T-47D, MTT",8.62 ± 0.34 µM
same,"viability at 24 h, 0.4 µM","[2]; WI38, 0.4uM (log conc. -0.41)",83.2%
same,"viability at 24 h, 1.6 µM","[2]; WI38, 1.6uM (log conc. 0.19)",70.8%
same,"viability at 24 h, 6.3 µM","[2]; WI38, 6.3uM (log conc. 0.8)",61%
same,"viability at 24 h, 25 µM","[2]; WI38, 25uM (log conc. 1.4)",50.4%
same,"viability at 24 h, 100 µM","[2]; WI38, 100uM (log conc. 2)",42.1%
same,IC50,"normal cell line WI-38; Homo sapiens, read-out: Antiproliferative activity IC50 ± SEM",29.6 ± 1.18 µM
same,% viability,"normal cell line WI-38; WI38, 0.4uM (log conc. -0.41), listed as Ws5, 0.4 µM",83.1677%
same,% viability,"normal cell line WI-38; WI38, 1.6uM (log conc. 0.19), listed as Ws5, 1.6 µM",70.8075%
same,% viability,"normal cell line WI-38; WI38, 6.3uM (log conc. 0.8), listed as Ws5, 6.3 µM",60.9938%
same,% viability,"normal cell line WI-38; WI38, 100uM (log conc. 2), listed as Ws5, 100 µM",42.1118%
same,% viability,"[3]; HOP-92, MTT, 0.4uM, listed as Ws5, 0.4 µM",71.413%
same,% viability,"[3]; HOP-92, MTT, 1.6uM, listed as Ws5, 1.6 µM",60.375%
same,% viability,"[3]; HOP-92, MTT, 6.3uM, listed as Ws5, 6.3 µM",47.848%
same,% viability,"[3]; HOP-92, MTT, 25uM, listed as Ws5, 25 µM",34.437%
same,viability at 0.4 µM,"[3]; Homo sapiens, HOP-92, HOP-92, MTT, 0.4uM, read-out: % viability",71.4%
same,viability at 1.6 µM,"[3]; Homo sapiens, HOP-92, HOP-92, MTT, 1.6uM, read-out: % viability",60.4%
same,viability at 6.3 µM,"[3]; Homo sapiens, HOP-92, HOP-92, MTT, 6.3uM, read-out: % viability",47.9%
same,viability at 25 µM,"[3]; Homo sapiens, HOP-92, HOP-92, MTT, 25uM, read-out: % viability",34.4%
same,viability at 100 µM,"[3]; Homo sapiens, HOP-92, HOP-92, MTT, 100uM, read-out: % viability",26.5%
same,IC50,"[3]; Homo sapiens, HOP-92, HOP-92, concentration used in RT-PCR, read-out: IC50",4.98 µM
same,IC50,"[3]; Homo sapiens, HOP-92, HOP-92, concentration used in apoptosis assay, read-out: Conc IC50",4.98 µM
same,IC50,"[3]; Homo sapiens, HOP-92, HOP-92, concentration used in cell cycle analysis, read-out: IC50",4.98 µM
same,IC50,"[3]; Homo sapiens, HOP-92, MTT, read-out: Antiproliferative activity IC50 ± SEM, HOP-92",4.98 ± 0.2 µM
same,IC50,BRAF^V600E,0.068 ± 0.003 µM
